MIC90 data for 5 molecules are collected here from patent US9630977B2, “Cephalosporin derivatives and pharmaceutical compositions thereof” (Legochem Biosciences, Inc., priority 2011, dated 2017).

Holding throughout (assay): In vitro antibacterial activity test (broth microdilution)
Assay type in all cases: cell-based

One test concerns K. pneumoniae β13. The conditions noted are these: Klebsiella pneumoniae. In a few lines:
(§1)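 Clinical isolates were tested in two-fold dilution series (final 0.0626–128 ug/mL, 2.5% v/v DMSO) by the CLSI broth microdilution method. Values are MIC90, the lowest concentration preventing visible growth of 90% of organisms compared with untreated control.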

In a further test the test system is K. pneumoniae β14. Particulars: Klebsiella pneumoniae. In a few lines:
as §1

Another test concerns A. baumannii 46. The conditions noted are these: Acinetobacter baumannii, 46, A. baumannii 46. In a few lines:
as §1

In a further test the test system is E. coli β4. Particulars: Escherichia coli. In a few lines: as §1
In another test the test system is M. catarrhalis 2524. The conditions noted are these: Moraxella catarrhalis, 2524. In a few lines: as §1
In a further test the test system is A. baumannii 49. Particulars: Acinetobacter baumannii, 49, A. baumannii 49. In a few lines:
as §1

The test system of a further test is E. cloacae β19. The conditions noted are these: Enterobacter cloacae. In a few lines: as §1
In the next test the test system is P. aeruginosa 37. Particulars: Pseudomonas aeruginosa, 37, P. aeruginosa 37. In a few lines: as §1
Test [1] concerns A. calcoaceticus ATCC15473. Particulars: Acinetobacter calcoaceticus, ATCC15473, A. calcoaceticus ATCC15473. In a few lines: as §1
For a further test, the system named is P. aeruginosa 6065Y. Particulars: Pseudomonas aeruginosa, 6065Y. In a few lines: as §1
The test system of the next test is E. coli AG100. Particulars: Escherichia coli, AG100. In a few lines: as §1
The test system of another test is K. pneumoniae β10. The conditions noted are these: Klebsiella pneumoniae. In a few lines:
as §1

A further test concerns P. aeruginosa 1912E. The conditions noted are these: Pseudomonas aeruginosa, 1912E. In a few lines: as §1
Another test has as its system P. aeruginosa 40. The conditions noted are these: Pseudomonas aeruginosa, 40. In a few lines:
as §1

The next test relates to P. aeruginosa 43. Particulars: Pseudomonas aeruginosa, 43. In a few lines: as §1
The subject of a further test is K. pneumoniae 2011E. The conditions noted are these: Klebsiella pneumoniae, 2011E. In a few lines: as §1
A further test has as its system A. baumannii 52. The conditions noted are these: Acinetobacter baumannii, 52. In a few lines: as §1
Another test has as its system K. pneumoniae β9. Particulars: Klebsiella pneumoniae. In a few lines:
as §1

The next test concerns K. pneumoniae β11. Particulars: Klebsiella pneumoniae. In a few lines:
as §1

Values after ≈ are worked out from the molar mass of the structure shown. Some results are limits rather than exact numbers.

Take `CC(C)(O/N=C(\C(=O)N[C@@H]1C(=O)N2C(C(=O)[O-])=C(/C=C/C[n+]3cnc(N)c(NCCN)c3)CSC12)c1nc(N)sc1Cl)C(=O)O` (some centres unmarked) [Compound 54]: the MIC90 (usually an inhibitory concentration at the 90% level, which refers to growth in some studies and to a panel of isolates in others) against K. pneumoniae β13 is 1 µg/mL (≈ 1.47 µM); against K. pneumoniae β14, 1 µg/mL (≈ 1.47 µM); in the test on A. baumannii 46 it was 4 µg/mL (≈ 5.87 µM); with E. coli β4, 0.5 µg/mL (≈ 0.734 µM); in the test with M. catarrhalis 2524 it was less than 0.0625 µg/mL; in the test on A. baumannii 49 it was 128 µg/mL (≈ 188 µM). The MIC90 was 4 µg/mL (≈ 5.87 µM) in the test on E. cloacae β19; 4 µg/mL (≈ 5.87 µM) in the test with P. aeruginosa 37; 1 µg/mL (≈ 1.47 µM) in test [1]; 16 µg/mL (≈ 23.5 µM) against P. aeruginosa 6065Y; 0.25 µg/mL (≈ 0.367 µM) against E. coli AG100; 0.5 µg/mL (≈ 0.734 µM) against K. pneumoniae β10. In addition, the MIC90 against P. aeruginosa 1912E came out at 2 µg/mL (≈ 2.94 µM); against P. aeruginosa 40, 4 µg/mL (≈ 5.87 µM); with P. aeruginosa 43 it was 64 µg/mL (≈ 94 µM); in the test on K. pneumoniae 2011E, 1 µg/mL (≈ 1.47 µM); against A. baumannii 52, 32 µg/mL (≈ 47 µM); in the test with K. pneumoniae β9 it was 1 µg/mL (≈ 1.47 µM). Further, in the test on K. pneumoniae β11, the MIC90 stood at 2 µg/mL (≈ 2.94 µM).

In the case of `CC(C)(O/N=C(\C(=O)N[C@@H]1C(=O)N2C(C(=O)[O-])=C(/C=C/C[n+]3cnc(N)c(NCCN)c3)CSC12)c1nsc(N)n1)C(=O)O` (some centres unmarked) [Compound 55], the MIC90 with K. pneumoniae β13 was 0.25 µg/mL (≈ 0.386 µM); against K. pneumoniae β14, 0.5 µg/mL (≈ 0.772 µM); against A. baumannii 46, 0.5 µg/mL (≈ 0.772 µM); against E. coli β4, less than 0.0625 µg/mL; with M. catarrhalis 2524 it was less than 0.0625 µg/mL; in the test with A. baumannii 49, 64 µg/mL (≈ 98.8 µM). Also, the MIC90 was 8 µg/mL (≈ 12.4 µM) in the test with E. cloacae β19; 4 µg/mL (≈ 6.18 µM) with P. aeruginosa 37; 0.125 µg/mL (≈ 0.193 µM) in test [1]; 8 µg/mL (≈ 12.4 µM) in the test on P. aeruginosa 6065Y; less than 0.0625 µg/mL in the test on E. coli AG100; 0.125 µg/mL (≈ 0.193 µM) in the test with K. pneumoniae β10. For the same molecule, the MIC90 is 1 µg/mL (≈ 1.54 µM) in the test on P. aeruginosa 1912E; 1 µg/mL (≈ 1.54 µM) in the test on P. aeruginosa 40; more than 128 µg/mL in the test with P. aeruginosa 43; less than 0.0625 µg/mL against K. pneumoniae 2011E; 64 µg/mL (≈ 98.8 µM) with A. baumannii 52; 2 µg/mL (≈ 3.09 µM) against K. pneumoniae β9. In addition, the MIC90 with K. pneumoniae β11 is 128 µg/mL (≈ 198 µM).

For `CC(C)(O/N=C(\C(=O)N[C@@H]1C(=O)N2C(C(=O)[O-])=C(/C=C/C[n+]3cnc(N)c(NCCCN)c3)CSC12)c1nsc(N)n1)C(=O)O` (some centres unmarked) [Compound 56], the MIC90 against K. pneumoniae β13 is 1 µg/mL (≈ 1.51 µM); in the test on K. pneumoniae β14 it was 2 µg/mL (≈ 3.02 µM); with A. baumannii 46 it was 4 µg/mL (≈ 6.04 µM); in the test on E. coli β4, 1 µg/mL (≈ 1.51 µM); against M. catarrhalis 2524, less than 0.0625 µg/mL; in the test on A. baumannii 49, 32 µg/mL (≈ 48.4 µM). Also, the MIC90 against E. cloacae β19 was 4 µg/mL (≈ 6.04 µM); against P. aeruginosa 37, 8 µg/mL (≈ 12.1 µM); in [1] it was 1 µg/mL (≈ 1.51 µM); in the test on P. aeruginosa 6065Y, 16 µg/mL (≈ 24.2 µM); against E. coli AG100, 0.5 µg/mL (≈ 0.756 µM); with K. pneumoniae β10 it was 1 µg/mL (≈ 1.51 µM). Moreover, the MIC90 against P. aeruginosa 1912E was 2 µg/mL (≈ 3.02 µM); in the test with P. aeruginosa 40 it was 8 µg/mL (≈ 12.1 µM); with P. aeruginosa 43, 64 µg/mL (≈ 96.7 µM); in the test with K. pneumoniae 2011E it was 2 µg/mL (≈ 3.02 µM); with A. baumannii 52, 16 µg/mL (≈ 24.2 µM); in the test with K. pneumoniae β9, 1 µg/mL (≈ 1.51 µM). This molecule yielded an MIC90 against K. pneumoniae β11 of 2 µg/mL (≈ 3.02 µM).

In the case of `CC(C)(O/N=C(\C(=O)N[C@@H]1C(=O)N2C(C(=O)[O-])=C(/C=C/C[n+]3cnc(N)c(NCCCN)c3)CSC12)c1nc(N)sc1Cl)C(=O)O` (some centres unmarked) [Compound 57], the MIC90 against K. pneumoniae β13 is 0.5 µg/mL (≈ 0.719 µM); in the test on K. pneumoniae β14, 1 µg/mL (≈ 1.44 µM); against A. baumannii 46, 1 µg/mL (≈ 1.44 µM); in the test with E. coli β4 it was 0.125 µg/mL (≈ 0.18 µM); against M. catarrhalis 2524 it was less than 0.0625 µg/mL; against A. baumannii 49, 64 µg/mL (≈ 92.1 µM). The MIC90 with E. cloacae β19 was 8 µg/mL (≈ 11.5 µM); against P. aeruginosa 37, 8 µg/mL (≈ 11.5 µM); in test [1], 0.5 µg/mL (≈ 0.719 µM); against P. aeruginosa 6065Y it was 16 µg/mL (≈ 23 µM); against E. coli AG100 it was 0.125 µg/mL (≈ 0.18 µM); with K. pneumoniae β10 it was 0.25 µg/mL (≈ 0.36 µM). Besides, the MIC90 in the test on P. aeruginosa 1912E is 0.5 µg/mL (≈ 0.719 µM); against P. aeruginosa 40, 4 µg/mL (≈ 5.75 µM); in the test on P. aeruginosa 43, more than 128 µg/mL; against K. pneumoniae 2011E it was 0.25 µg/mL (≈ 0.36 µM); in the test with A. baumannii 52, 64 µg/mL (≈ 92.1 µM); with K. pneumoniae β9 it was 1 µg/mL (≈ 1.44 µM). In addition, in the test with K. pneumoniae β11, the MIC90 was 128 µg/mL (≈ 184 µM).

As for `CC(C)(O/N=C(\C(=O)N[C@@H]1C(=O)N2C(C(=O)[O-])=C(/C=C/C[n+]3cnc(N)c(NCCCCN)c3)CSC12)c1nc(N)sc1Cl)C(=O)O` (some centres unmarked) [Compound 58], the MIC90 was 4 µg/mL (≈ 5.64 µM) against K. pneumoniae β13; 4 µg/mL (≈ 5.64 µM) against K. pneumoniae β14; 32 µg/mL (≈ 45.1 µM) in the test with A. baumannii 46; 2 µg/mL (≈ 2.82 µM) against E. coli β4; less than 0.0625 µg/mL against M. catarrhalis 2524; 32 µg/mL (≈ 45.1 µM) with A. baumannii 49. Further, the MIC90 was 8 µg/mL (≈ 11.3 µM) in the test on E. cloacae β19; 32 µg/mL (≈ 45.1 µM) in the test with P. aeruginosa 37; 4 µg/mL (≈ 5.64 µM) in test [1]; 32 µg/mL (≈ 45.1 µM) against P. aeruginosa 6065Y; 0.5 µg/mL (≈ 0.705 µM) in the test on E. coli AG100; 2 µg/mL (≈ 2.82 µM) against K. pneumoniae β10. For the same molecule, the MIC90 with P. aeruginosa 1912E was 8 µg/mL (≈ 11.3 µM); against P. aeruginosa 40 it was 16 µg/mL (≈ 22.6 µM); against P. aeruginosa 43, more than 128 µg/mL; against K. pneumoniae 2011E, 2 µg/mL (≈ 2.82 µM); against A. baumannii 52, 64 µg/mL (≈ 90.2 µM); against K. pneumoniae β9, 8 µg/mL (≈ 11.3 µM). The MIC90 with K. pneumoniae β11 came out at 8 µg/mL (≈ 11.3 µM).
